How the values were obtained:
[1] = target: T1, cruzain (Trypanosoma cruzi, UniProt P25779); assay: Cruzain enzyme inhibition assay (cleavage of fluorogenic substrate Z-FR-AMC); type: biochemical
T1 construct: made in house; host or cells: Escherichia coli (strain M15)
Procedure: Pro-cruzain truncated at the C-terminus was expressed and purified using a previously described protocol ([Ferreira et al., 2019]). Escherichia coli (strain M15) cultures were grown overnight at 37°C and 200 rpm in Luria Bertani (LB) medium supplemented with ampicillin (100 μg/ml) and kanamycin (50 μg/ml). Next, the cultures were diluted 10-fold in fresh LB medium supplemented with 0.5 M NaCl, 0.2% glucose, 1 mM betaine, 0.5 M sorbitol, 100 μg/ml ampicillin, and 50 μg/ml kanamycin and incubated at 37°C and 200 rpm. At an optical density (OD600) of 0.9, the cultures were incubated at 47°C for 20 min to promote the expression of chaperones. Then, the expression of cruzain was induced by adding isopropyl β-D-thiogalactopyranoside (IPTG) to a final concentration of 0.2 mM, which was followed by overnight incubation of the cultures at 20°C and 200 rpm. Next, the cultures were centrifuged (5,000 rpm, 30 min, 4°C), and the cells were suspended in 50 ml of lysis buffer (300 mM NaCl, 50 mM Tris-HCl, and 1.6 mg/ml lysozyme, pH 8.0) per liter of culture and lysed by sonication (12 cycles of 30 s). This cell lysate was centrifuged (9,000 rpm, 30 min, 4°C), and the supernatant was collected. Cruzain was precipitated by incubation with 35% ammonium sulfate (2 h), and this suspension was centrifuged at 9,000 rpm for 30 min at 4°C. The precipitated cruzain was resuspended in lysis buffer, and the sample was dialyzed to eliminate ammonium sulfate. The soluble fraction of the dialysate was loaded on a Ni−NTA column (Qiagen, Hilden, Germany), and the contaminants were washed using washing buffer (300 mM NaCl, 50 mM Tris-HCl, and 10 mM imidazole, pH 8.0). Cruzain was eluted by applying an increasing imidazole gradient: 25, 50, 75, 100, and 250 mM. The fractions containing cruzain were pooled together and dialyzed against 1.5 L of 0.1 M acetate buffer, pH 5.5, and then concentrated to 0.5 mg/ml. Pro-cruzain was activated by incubation with activation buffer (100 mM sodium acetate, pH 5.5, 10 mM EDTA, 5 mM DTT, and 1 M NaCl) at 37°C. […] After activation, the enzyme was diluted 20-fold in binding buffer (20 mM sodium phosphate and 150 mM NaCl, pH 7.2) and added to thiopropyl Sepharose 6B resin (GE Healthcare Life Sciences, Pittsburgh, PA). After overnight incubation at 4°C, the resin was loaded on a column, and cruzain was eluted with binding buffer supplemented with 20 mM DTT. Fractions containing cruzain were pooled together and stored in 0.1 M sodium acetate, pH 5.5, at −80°C.
Cruzain activity was followed by monitoring the cleavage of the fluorogenic substrate Z-Phe-Arg-aminomethyl coumarin (Z-FR-AMC), as previously described ([Ferreira et al., 2019]), using 96-well flat-bottom black plates and wavelengths of 355 nm for excitation and 460 nm for emission. All cruzain assays were performed in 0.1 M sodium acetate buffer with 5 mM dithiothreitol (DTT) and 0.01% Triton X-100, pH 5.5. […] The cleavage of the substrate was monitored for 5 min, and the activity was calculated based on the initial reaction rates compared with the rate of a DMSO control at 30°C. The IC50 values were independently calculated by considering the rate measurements for at least six inhibitor concentrations, each evaluated in triplicate. To determine the mechanism of cruzain inhibition, eight concentrations of the substrate Z-FR-AMC and four concentrations of the inhibitor were employed, each in triplicate. Kinetic parameters were determined using the SigmaPlot (Systat Software Inc., Erkrath, Germany) enzyme kinetics module. Compounds were tested in two or three independent experiments. All enzyme assays were performed using varying Triton X-100 concentrations (0, 0.01, and 0.1%) ([Ferreira et al., 2009]). Compound concentrations were 100 μM in the single-dose percentage inhibition assays.

[2] = target: rhodesain (Trypanosoma brucei rhodesiense, UniProt Q95PM0); assay: Rhodesain fluorescence-based inhibition assay (Z-FR-AMC); type: biochemical; details: Table S3; compound 100 µM
Sequence of rhodesain (Q95PM0 entry or part of it): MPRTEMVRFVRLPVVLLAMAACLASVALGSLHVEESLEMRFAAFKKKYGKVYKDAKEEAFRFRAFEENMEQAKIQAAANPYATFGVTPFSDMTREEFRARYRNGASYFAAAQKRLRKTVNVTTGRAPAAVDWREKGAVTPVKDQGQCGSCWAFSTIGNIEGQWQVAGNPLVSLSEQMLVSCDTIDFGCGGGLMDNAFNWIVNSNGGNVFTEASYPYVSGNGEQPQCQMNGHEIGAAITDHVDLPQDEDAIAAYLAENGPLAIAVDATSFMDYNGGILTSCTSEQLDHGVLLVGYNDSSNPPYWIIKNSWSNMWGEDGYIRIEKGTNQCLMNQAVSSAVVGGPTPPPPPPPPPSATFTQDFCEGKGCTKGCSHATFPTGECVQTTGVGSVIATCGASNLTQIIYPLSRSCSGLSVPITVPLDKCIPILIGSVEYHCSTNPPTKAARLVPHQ
Procedure: Rhodesain activity was measured using a fluorescence-based assay as previously described ([Fonseca et al., 2015]). The cleavage rates of the fluorogenic substrate Z-Phe-Arg-aminomethyl coumarin (Z-FR-AMC) were monitored at wavelengths of 340 nm for excitation and 440 nm for emission. All assays were performed in triplicate in a 0.1 M sodium acetate buffer, pH 5.5, with 1 mM beta-mercaptoethanol and 0.01% Triton X-100. The final concentration of rhodesain was 3 nM, and the substrate concentration was 2.5 μM. The cleavage of the substrate was followed by continuous reading for 5 min, and enzyme activity in the presence of 100 μM of each potential inhibitor was calculated based on initial velocity rates compared to DMSO controls. All compounds were tested in triplicate in three independent experiments.

[3] = test system: T. cruzi intracellular amastigotes; assay: Assay against T. cruzi intracellular amastigotes (Tulahuen lacZ strain in HFF-1 fibroblasts); type: cell-based, Trypanosoma cruzi; details: Trypanosoma cruzi, HFF-1, 120 h, Table 3, 120 h, mean ± SD of three assays
Procedure: Biological assays against T. cruzi intracellular amastigotes were performed as reported previously using the T. cruzi Tulahuen strain, which is genetically engineered to express the E. coli β-galactosidase gene lacZ ([Buckner et al., 1996]). β-Galactosidase catalyzes a colorimetric reaction with chlorophenol red β-D-galactopyranoside (CPRG, Sigma Chemical Co., St. Louis, MO) as the substrate. The assays were conducted in 96-well tissue culture plates, and the compounds to be tested were prepared in 100% DMSO. Epimastigotes were maintained in liver infusion tryptone (LIT) enriched with 10% fetal calf serum (FCS), streptomycin, and penicillin at 28°C. Epimastigotes were converted to trypomastigotes by incubation in Grace’s insect medium (Sigma–Aldrich, St. Louis, MO) enriched with 10% FCS at 28°C. Human HFF-1 fibroblasts were seeded at 2 × 10^3/well in 80 μl of RPMI 1640 without phenol red and incubated overnight at 37°C and 5% CO2. Trypomastigotes were seeded at 1.0 × 10^4/well in 20 μl of RPMI 1640, and the plates were incubated at 37°C and 5% CO2. The next day, the synthesized compounds were added (50 μl) in 3-fold serial dilutions at concentrations ranging from 0.4 to 300 μM, and the plates were incubated at 37°C and 5% CO2. Each compound concentration was assayed in triplicate. After 120 h, 50 μl of chlorophenol red β-D-galactopyranoside (CPRG, Sigma–Aldrich) and IGEPAL CA-630 (Sigma–Aldrich) at a final concentration of 0.1% were added. The absorbance was measured at a wavelength of 570 nm in an automated microplate reader. The data were transferred to SigmaPlot 10.0 (Systat Software Inc., Erkrath, Germany) to determine the IC50 values. Benznidazole (BZ, Sigma–Aldrich) was used as a positive control, and untreated wells (100% parasite growth) were used as negative controls in all plates. All compounds were tested in three independent assays.

[4] = Parallel artificial membrane permeability assay (PAMPA); type: in vitro ADME; details: PAMPA, Table 3; donor pH 6.5, acceptor pH 7.4, 5 h
Procedure: The permeability of the compounds was assessed using the PAMPA method ([Yu et al., 2015]). The test compounds were dissolved in DMSO to a concentration of 5 mM. Next, the compounds were diluted in a stock plate in saline phosphate buffer (PBS), pH 6.5, containing 1% DMSO to a concentration of 1 µM. Then, 300 µl of each test compound was added to the donor plate. Afterward, 200 µl of PBS buffer, pH 7.4, was added to the acceptor plate. The donor plate was attached to the acceptor plate. The assembled acceptor-donor plate was then incubated at 37°C for 5 h under gentle agitation. To analyze the concentration of the compounds by mass spectrometry, two analysis plates (one for the donor and another for the acceptor plate) containing 300 μl of MEOH:ACN 50:50 were prepared. To the donor analysis plate, 90 µl of PBS, pH 6.5, and 10 µl of the content of the donor plate were added. For the acceptor analysis plate, 100 µl of the content of the acceptor plate was added. To monitor any potential decomposition/intrinsic instability of the test compounds in solution, samples from the stock plate were subjected to LC-MS/MS. The compounds that presented Pe ≥ 1.5 × 10^−6 cm/s were classified as permeable, while compounds that presented Pe < 1.5 × 10^−6 cm/s were considered poorly permeable or nonpermeable.

T1 sequence (P25779 123-337 limits assumed): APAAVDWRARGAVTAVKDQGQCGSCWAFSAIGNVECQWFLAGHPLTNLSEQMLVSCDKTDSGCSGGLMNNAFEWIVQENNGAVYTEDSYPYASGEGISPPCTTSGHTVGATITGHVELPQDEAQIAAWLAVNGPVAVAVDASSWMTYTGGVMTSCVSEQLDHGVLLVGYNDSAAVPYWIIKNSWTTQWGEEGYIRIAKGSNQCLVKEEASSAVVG

## O=C(COc1ccc2cc(C(=O)O)ccc2c1)NCCc1nc2ccccc2[nH]1 [Compound 13]
[1]; 1.5 nM cruzain, 5.0 µM Z-FR-AMC, mean ± SD of 2–3 assays, read-out: IC50 (µM) against cruzain
  IC50: 24.2 ± 4.5 µM
[1]; compound 100 µM, mean of three measures
  inhibition at 100 µM: 89%
[2]
  inhibition at 100 µM: 54%
[3]
  IC50: > 50 µM
[4]
  Papp at 5 h, 1 µM: 0.83 ×10⁻⁶ cm/s

Reference: paper PMC8767159, “Multiparameter Optimization of Trypanocidal Cruzain Inhibitors With In Vivo Activity and Favorable Pharmacokinetics” (Frontiers in Pharmacology, 2022)
